# According to US5670358A, “Method for inhibiting chymopapain and papain enzyme activity with polysaccharides of animal origin” (Baxter International Inc., priority 1995, dated 1997):
# Tests used:
# papain = test: Papain protease activity, hydrolysis of BAPNA synthetic substrate (absorbance 415 nm); assay type: biochemical, papaya; details: 37° C., Tricine buffer 50 mM, 10 mM CaCl2
# Procedure: (§1) The invention will be better understood by reference to the following nonlimiting examples which illustrate the use of the animal-derived polysaccharide materials of the present invention in inhibiting various enzymes. In these examples the activities of chymopapain and papain were determined by assay using BAPNA, N-benzoyl-L-arginine-p-nitroanilide synthetic substrate by measuring the increase in absorbance at 415 nm. The activity of clostripain was determined by assay using BAEE, N-benzoyl-L-arginine ethyl ester synthetic substrate by measuring the increase in absorbance at […]. The activity of trypsin was determined by assay using BAPNA.
# (§2) Protease activity was determined by measuring the reaction rates for the hydrolysis of synthetic substrates for the enzymes trypsin, chymopapain, papain, and clostripain. The increase in absorbance at 415 nm was used for the measurement of the reaction rates for trypsin, chymopapain and papain upon a BAPNA substrate. The increase in absorbance at 253 nm was used for the measurement of the reaction rates for clostripain. Trypsin, chymopapain and papain activities were determined at 37° C. in Tricine buffer, 50 mM, containing 10 mM CaCl2. Clodytipain activity was determined at room temperature. Chymopapain, papain, and clostripain were activated with L-cysteine or dithiothreitol reducing agent prior to assay. Concentration of reducing agent in the substrate solution was maintained at 5 mM by addition of reducing agent to the substrate solution.
# The percentage inhibition was obtained from the ratio of enzyme activity in the presence of inhibitor to the activity of a control to which no inhibitor was added.
# trypsin = test: Trypsin protease activity, hydrolysis of BAPNA synthetic substrate (absorbance 415 nm); assay type: biochemical; details: for Trypsin % Inhibited: 37° C., Tricine buffer 50 mM, 10 mM CaCl2
# Procedure: as §1, §2
# (§3) Glycogen was dissolved in the assay buffer to a final concentration of 1%. The percentage inhibition was obtained from the ratio of enzyme activity in the presence of inhibitor to the activity of a control to which no inhibitor was added.
# clostripain = test: Clostripain protease activity, hydrolysis of BAEE synthetic substrate (absorbance 253 nm); assay type: biochemical; details: for Clostripain % Inhibited: room temperature
# Procedure: as §1, §2, §3
# chymopapain = test: Chymopapain protease activity, hydrolysis of BAPNA synthetic substrate (absorbance 415 nm); assay type: biochemical, papaya; details: for Chymopapain % Inhibited: 37° C., Tricine buffer 50 mM, 10 mM CaCl2
# Procedure: as §1, §2, §3
# [1] = inhibitor concentration 0.5%, listed as hyaluronic acid
# [2] = inhibitor concentration 1%, listed as glycogen
Substance,Papain % Inhibited (papain; inhibitor concentration 0.5%) [%],Papain % Inhibited (papain; [1]),Trypsin % Inhibited (trypsin; inhibitor concentration 0.5%) [%],Trypsin % Inhibited (trypsin; [1]),Clostripain % Inhibited (clostripain; inhibitor concentration 0.5%) [%],Clostripain % Inhibited (clostripain; [1]),Chymopapain % Inhibited (chymopapain; inhibitor concentration 0.5%) [%],Chymopapain % Inhibited (chymopapain; [1]),effectiveness in inhibiting trypsin relative to chymopapain and papain (trypsin; inhibitor concentration 0.5%),effectiveness in inhibiting clostripain relative to chymopapain and papain (clostripain; inhibitor concentration 0.5%),Papain % Inhibited (papain; inhibitor concentration 1%) [%],Trypsin % Inhibited (trypsin; inhibitor concentration 1%) [%],Trypsin % Inhibited (trypsin; [2]),Clostripain % Inhibited (clostripain; inhibitor concentration 1%) [%],Clostripain % Inhibited (clostripain; [2]),effectiveness as inhibitor of chymopapain and papain activity relative to trypsin activity (chymopapain; inhibitor concentration 1%),Chymopapain % Inhibited (chymopapain; inhibitor concentration 1%) [%]
Hyaluronic acid,35.8,effective,0,no inhibiting effect,0,no inhibiting effect,34.2,effective,,,,,,,,,
Desulfated heparin,9.8,,4.1,,0.8,,8.8,,less than one-half as effective,about one-tenth as effective,,,,,,,
Glycogen,,,,,,,,,,,12.5,1.1,about 1%,0,no inhibiting effect,10-20 times,17
